Results: US20120231470A1, “METHODS AND SYSTEMS ASSOCIATED WITH DETECTION OF FATTY ACID ELONGATION IN A CELL” (priority 2011, published 2012)

What was measured:
[1] = tested on: fatty acid biosynthesis in B392 cells; test: High-throughput 96-well screen for fatty acid biosynthesis inhibitors; type: cell-based, Vibrio harveyi; settings: B392, 96-well plate; for Fluorescence ratio between non-treated cells and drug treated cells: C6N3 5 mM overnight, final drug concentrations 500, 50 or 5 μM, cerulenin at sub-bacteriostatic concentration; for Detection as fatty acid biosynthesis inhibitor in the high-throughput screen: FIG. 6
Description: In this example, a high-throughput cell-based antibiotic screen, which would identify fatty acid biosynthesis inhibitors, was implemented. B392 cells in a 96-well plate were treated with various concentrations of commercially available fatty acid biosynthesis inhibitors, including cerulenin (Ref. 8), bischloroanthrabenzoxocinone (Ref. 10), thiolactomycin (Ref. 11), and platensimycin (Ref. 2) as well as a number of arbitrarily chosen drugs (listed in TABLE 3).
In TABLE 3 above, rows of the 96-well plate are indicated by a letter and the columns are indicated by a number. Antibiotics labeled with a *, the wells contain 200× stocks of 10 mM and 1 mM of antibiotic in descending order. For bischloroanthrabenzoxocinone, thiolactomycin, and platensimycin, the wells only contain 200× stocks of 1 mM of antibiotic. For other antibiotics, the wells contain 200× stocks of 100 mM, 10 mM, and 1 mM of antibiotic in descending order.
B392 cells given no drug treatment served as the control. Cells were then fed with C6N3 and allowed to grow overnight. Extracellular C6N3 was washed away with 0.9% NaCl three times, and cellular lipids were click-reacted with 50 μM cyclooctyne-coumarin conjugate for 30 minutes at 37° C. Non-reacted cyclooctyne-coumarin conjugate was washed away with 0.9% NaCl three times, and cells were re-suspended in 0.9% NaCl to be analyzed by plate reader. […]. It should be noted that the same method described here in Example 3 can be used to identify compounds which enhance fatty acid biosynthesis. […].
In particular, B392 cells were grown in 150 mL cultures of synthetic media (Ref. 9) until OD 0.3 was reached. Cells were transferred (1 mL of the culture loaded into each well) to a 2 mL 96-well plate via a multi-pipette robot (this robot was used for most liquid transfers mentioned in this example). To each well, 5 μL of antibiotic from a 200× stock antibiotic plate in DMSO (TABLE 3) was introduced to create final treatment concentrations of 500 μM, 50 μM, and 5 μM. After 30 minutes, 10 μL of 500 mM C6N3 in DMSO was introduced to each well for a final treatment concentration of 5 mM. Cells were grown overnight, then spun down at 2000 g for 10 minutes. Supernatant was removed, and then non-incorporated C6N3 was washed from cells three times by re-suspending the cells in 1 mL of 0.9% NaCl, spinning the cells down at 2000 g for 10 minutes, and removing the supernatant. The cells were re-suspended in 200 μL of 50 μM cyclooctyne-coumarin conjugate in 0.9% NaCl and incubated at 37° C. for 30 minutes. Cells were collected and washed three more times with 1 mL of 0.9% NaCl to remove non-reacted cyclooctyne-coumarin conjugate, and cells re-suspended in 400 μL of 0.9% NaCl were analyzed by plate reader for fluorescence (excitation 380 nm, detection 500 nm) and cell density.

[2] = known (Ref 10); cited from earlier work
[3] = tested on: fatty acid elongation in Vibrio harveyi strain B392; test: C6N3 incorporation/elongation assay, cyclooctyne-coumarin labeling, plate reader; type: cell-based
Description: (§1) In particular, the cells were grown in 5 mL of synthetic media (Ref 9), and at OD 0.2, cerulenin was introduced to appropriate samples for a final treatment concentration of 10 μg/mL (sub-bacteriostatic). Then, at OD 0.3, C6N3 was introduced to appropriate samples for a final treatment concentration of 5 mM. After allowing the cells to grow in presence of C6N3 for 5 hours, the cells were spun down at 5000 g for 10 minutes, and the supernatant was removed. Non-incorporated C6N3 was washed from cells three times by re-suspending the cell pellet in 10 mL of 0.9% NaCl, spinning the cells down at 5000 g for 10 minutes, and removing the supernatant. […] The cells were re-suspended in 1 mL of 50 μM cyclooctyne-coumarin conjugate in 0.9% NaCl and incubated at 37° C. for 30 minutes. Cells were collected and washed three more times with 10 mL of 0.9% NaCl to remove non-reacted cyclooctyne-coumarin conjugate, and a fraction of the cells re-suspended in 2 mL of 0.9% NaCl were analyzed by plate reader (excitation 380 nm, detection 500 nm) or flow cytometry (excitation 407 nm, detection 450/40 bandpass filter).
(§2) In particular, the cells were grown in 5 mL of synthetic media (Ref 9), and at OD 0.2, cerulenin was introduced to appropriate samples for a final treatment concentration of 10 μg/mL (sub-bacteriostatic). Then, at OD 0.3, C6N3 was introduced to appropriate samples for a final treatment concentration of 5 mM. After allowing the cells to grow in presence of C6N3 for 5 hours, the cells were spun down at 5000 g for 10 minutes, and the supernatant was removed. Non-incorporated C6N3 was washed from cells three times by re-suspending the cell pellet in 10 mL of 0.9% NaCl, spinning the cells down at 5000 g for 10 minutes, and removing the supernatant. The cells were re-suspended in 1 mL of 50 μM cyclooctyne-coumarin conjugate in 0.9% NaCl and incubated at 37° C. for 30 minutes. Cells were collected and washed three more times with 10 mL of 0.9% NaCl to remove non-reacted cyclooctyne-coumarin conjugate, and cells re-suspended in 2 mL of 0.9% NaCl were analyzed by plate reader (excitation 380 nm, detection 500 nm) or flow cytometry (excitation 407 nm, detection 450/40 bandpass filter).

[4] = tested on: fatty acid elongation in V. harveyi strain CY1723; test: as above; type: cell-based, Vibrio harveyi; settings: C6N3 5 mM + cerulenin 10 μg/mL
Description: as §1
In particular, the cells were grown in 5 mL of synthetic media (Ref 9), and at OD 0.2, cerulenin was introduced to appropriate samples for a final treatment concentration of 10 μg/mL (sub-bacteriostatic). […]

[5] = tested on: fatty acid elongation in V. harveyi B392; test: C6N3 incorporation/elongation assay, cyclooctyne-coumarin labeling, flow cytometry; type: cell-based, Vibrio harveyi; settings: C6N3 5 mM + cerulenin 10 μg/mL
Description: as §2
(§3) In addition, the samples were analyzed by flow cytometry (FIG. 4)

[6] = tested on: fatty acid elongation in V. harveyi CY1723; test: as above; type: cell-based, Vibrio harveyi; settings: C6N3 5 mM + cerulenin 10 μg/mL
Description: as §2, §3

Compound: C=C/C(C)=C/[C@@]1(C)SC(=O)C(C)=C1O [thiolactomycin, Thiolactomycin]
- Fluorescence ratio between non-treated cells and drug treated cells [1]: ~4.0
- Detection as fatty acid biosynthesis inhibitor in the high-throughput screen [1]: can be detected

Compound: COc1cc(C)c2c(c1)O[C@]1(C)Cc3cc4c(c(O)c3[C@H]2O1)C(=O)c1c(O)c(Cl)c(O)c(Cl)c1C4(C)C [Bischloroanthrabenzoxocinone]
- Detection as fatty acid biosynthesis inhibitor in the high-throughput screen [1]: not detected
- Cell permeability [2]: poor cell permeability

Compound: C/C=C/C/C=C/CCC(=O)[C@H]1O[C@H]1C(N)=O [cerulenin, Cerulenin]
- Fluorescence/OD ([3]; B392, C6N3 5 mM + cerulenin 10 μg/mL, 5 hours, plate reader): 45609
- Ratio (fluorescence/OD of Entry 1 divided by fluorescence/OD of the sample) ([3]; B392, C6N3 5 mM + cerulenin 10 μg/mL, plate reader): 11.58
- Fold decrease in fluorescence of cerulenin-treated culture compared to the same culture untreated ([3]; B392, C6N3 5 mM, cerulenin 10 μg/mL, FIG. 3): about seven-fold
- Inhibition of fatty acid biosynthesis / azide incorporation in lipids ([3]; B392 and CY1723 cells treated with C6N3 and cerulenin, TABLES 1 and 2): inhibited fatty acid biosynthesis efficiently
- Ratio (fluorescence/OD of Entry 1 divided by fluorescence/OD of the sample) [4]: 11.99
- Fluorescence/OD ([4]; 5 hours): 44069
- Mean fluorescence [5]: 2347
- Ratio (mean fluorescence of Entry 1 divided by mean fluorescence of the sample) [5]: 8.06
- Mean fluorescence [6]: 1704
- Ratio (mean fluorescence of Entry 1 divided by mean fluorescence of the sample) [6]: 11.09
- Fluorescence ratio between non-treated cells and drug treated cells [1]: ~4.5
- Detection as fatty acid biosynthesis inhibitor in the high-throughput screen [1]: can be detected

Compound: CC12C[C@@]34C=CC(=O)[C@@](C)(CCC(=O)Nc5c(O)ccc(C(=O)O)c5O)C3[C@H](CC1C4)O2 (stereo partly drawn) [platensimycin, Platensimycin]
- Fluorescence ratio between non-treated cells and drug treated cells [1]: ~2.6
- Detection as fatty acid biosynthesis inhibitor in the high-throughput screen [1]: can be detected
